Columns and labels:
human glucagon receptor = target: T1, human glucagon receptor (Homo sapiens, UniProt P47871); assay: cAMP response (HTRF) of HEK-293 cells stably expressing human glucagon receptor; assay type: cell-based; conditions: Table 5, read-out: EC50 hGlucagon-R
T1 construct: expressed in transfected cells; host or cells: HEK-293

human GLP-1 receptor = target: T2, human GLP-1 receptor (Homo sapiens, UniProt P43220); assay: cAMP response (HTRF) of HEK-293 cells stably expressing human GLP-1 receptor; assay type: cell-based; conditions: Table 5, read-out: EC50 hGLP-1R
T2 construct: expressed in transfected cells; host or cells: HEK-293

[1] = assay type: physicochemical; conditions: pH 4.5
Description: Prior to the testing of solubility and stability of a peptide batch, its content was determined. Therefore, two parameters were investigated, its purity (HPLC-UV) and the amount of salt load of the batch (ion chromatography). Since synthesized peptides contain primarily trifluoroacetate anions, only anion chromatography was performed.
. Therefore, solutions from solid samples were prepared in different buffer systems with a concentration of 1.0 mg/mL compound based on the previously determined content. HPLC-UV was performed after 2 h of gentle agitation from the supernatant, which was obtained by 20 min of centrifugation at 4000 rpm.
This analysis also served as starting point (t0) for the stability testing.
Instrument: Agilent 1100, column: X-Bridge C18 3.5 μm 2.1×150 mm (Waters), eluent: A: H20+500 ppm TFA/B: Methanol, flow: 0.55 mL/min, gradient: 0-5 min: 10-60% B; 5-15 min: 60-99% B; detection: 214 nm.

T1 sequence (P47871 26-477): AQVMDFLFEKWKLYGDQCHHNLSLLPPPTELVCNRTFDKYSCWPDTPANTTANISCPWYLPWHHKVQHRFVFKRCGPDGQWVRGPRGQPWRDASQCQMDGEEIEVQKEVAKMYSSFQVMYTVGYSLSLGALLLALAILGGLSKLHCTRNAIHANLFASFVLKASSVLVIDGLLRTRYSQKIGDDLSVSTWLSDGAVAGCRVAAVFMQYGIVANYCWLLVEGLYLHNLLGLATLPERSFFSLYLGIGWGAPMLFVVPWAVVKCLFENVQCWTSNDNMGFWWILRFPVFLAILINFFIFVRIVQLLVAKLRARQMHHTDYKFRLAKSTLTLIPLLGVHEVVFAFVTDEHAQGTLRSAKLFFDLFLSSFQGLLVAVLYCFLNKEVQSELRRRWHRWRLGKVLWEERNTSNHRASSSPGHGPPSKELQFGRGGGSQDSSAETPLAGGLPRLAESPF
T2 sequence (P43220 24-463): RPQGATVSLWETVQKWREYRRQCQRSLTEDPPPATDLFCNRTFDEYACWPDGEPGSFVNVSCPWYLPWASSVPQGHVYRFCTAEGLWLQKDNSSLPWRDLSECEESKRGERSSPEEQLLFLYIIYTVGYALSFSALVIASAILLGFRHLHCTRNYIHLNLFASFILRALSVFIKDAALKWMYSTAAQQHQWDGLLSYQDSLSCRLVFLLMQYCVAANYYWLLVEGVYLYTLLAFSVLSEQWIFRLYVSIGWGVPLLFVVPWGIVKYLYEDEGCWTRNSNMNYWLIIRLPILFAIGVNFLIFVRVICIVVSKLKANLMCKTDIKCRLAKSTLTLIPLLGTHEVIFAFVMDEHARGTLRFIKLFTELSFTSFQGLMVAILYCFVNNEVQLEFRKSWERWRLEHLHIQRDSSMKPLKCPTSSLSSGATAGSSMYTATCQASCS

Solubility pH4.5 [1] | Structure (SMILES) | EC50 (human glucagon receptor) | EC50 (human GLP-1 receptor)
 | CCCCCCCCCCCCCCCC(=O)N[C@@H](CCC(=O)NCCCC[C@H](NC(=O)[C@H](CCC(N)=O)NC(=O)[C@H](CCCCN)NC(=O)[C@H](CO)NC(=O)[C@H](CC(C)C)NC(=O)[C@H](CC(=O)O)NC(=O)[C@H](CO)NC(=O)[C@@H](NC(=O)[C@H](Cc1ccccc1)NC(=O)[C@@H](NC(=O)CNC(=O)[C@H](Cc1c[nH]cn1)NC(=O)[C@H](CO)NC(=O)[C@@H](N)Cc1c[nH]cn1)[C@@H](C)O)[C@@H](C)O)C(=O)N[C@@H](CCC(=O)O)C(=O)N[C@@H](CO)C(=O)N[C@@H](CCCNC(=N)N)C(=O)N[C@@H](CCCNC(=N)N)C(=O)N[C@@H](C)C(=O)N[C@@H](CCC(N)=O)C(=O)N[C@@H](CC(=O)O)C(=O)N[C@@H](Cc1ccccc1)C(=O)N[C@H](C(=O)N[C@@H](CCC(=O)O)C(=O)N[C@@H](Cc1c[nH]c2ccccc12)C(=O)N[C@@H](CC(C)C)C(=O)N[C@@H](CCCCN)C(=O)N[C@@H](C)C(=O)NCC(=O)NCC(=O)N1CCC[C@H]1C(=O)N[C@@H](CO)C(=O)N[C@@H](CO)C(=O)NCC(=O)N[C@@H](C)C(=O)N1CCC[C@H]1C(=O)N1CCC[C@H]1C(=O)N1CCC[C@H]1C(=O)N[C@@H](CO)C(N)=O)[C@@H](C)CC)C(=O)O [compound 208] | 1.3 pM | 2 pM
0 mg/ml | CCCCCCCCCCCCCCCC(=O)N[C@@H](CCC(=O)NCCCC[C@H](NC(=O)[C@H](C)NC(=O)[C@H](C)NC(=O)[C@H](CCC(N)=O)NC(=O)CNC(=O)[C@H](CCC(=O)O)NC(=O)[C@H](CC(C)C)NC(=O)[C@H](Cc1ccc(O)cc1)NC(=O)[C@H](CO)NC(=O)[C@H](CO)NC(=O)[C@@H](NC(=O)[C@H](CC(=O)O)NC(=O)[C@H](CO)NC(=O)[C@@H](NC(=O)[C@H](Cc1ccccc1)NC(=O)[C@@H](NC(=O)CNC(=O)[C@H](CCC(=O)O)NC(=O)[C@H](C)NC(=O)[C@@H](N)Cc1cnc[nH]1)[C@@H](C)O)[C@@H](C)O)C(C)C)C(=O)N[C@@H](CCC(=O)O)C(=O)N[C@@H](Cc1ccccc1)C(=O)N[C@H](C(=O)N[C@@H](C)C(=O)N[C@@H](Cc1c[nH]c2ccccc12)C(=O)N[C@@H](CC(C)C)C(=O)N[C@H](C(=O)N[C@@H](CCCNC(=N)N)C(=O)NCC(=O)N[C@@H](CCCNC(=N)N)C(=O)NCC(=O)O)C(C)C)[C@@H](C)CC)C(=O)O [compound 195] |  | 

Source: patent publication US20140100156A1 (SANOFI, priority 2012, published 2014)
